According to patent US12016896B2, “Dipeptidomimetics as inhibitors of human immunoproteasomes” (CORNELL UNIVERSITY, priority 2014, dated 2024):

Key:
[1] = molecular target: human constitutive proteasome β5c (Homo sapiens, UniProt P28074); test: IC50 against chymotryptic activity of human constitutive proteasome (Hu c-20S, suc-LLVY-AMC substrate); type: biochemical; details: 0.2 nM Hu c-20S, 25 μM suc-LLVY-AMC, 0.02% SDS, pH 7.4, 37° C.
Procedure: (§1) Measurement of IC50s of Dipeptidomimetics Against Chymotryptic Activities of the Human Constitutive Proteasome and Immunoproteasome
(§2) Assays were conducted on a SpectraMax Gemini plate-reader from Molecular Devices (Sunnyvale, CA). In a black 96-well plate, 100 μL of pre-warmed assay mixture containing 0.4 nM Hu i-20S or 0.2 nM Hu c-20S, 15 μM N-acetyl-Alanine-Asparagine-Tryptophan-7-amino-4-methylcoumarin (Ac-ANW-AMC) (substrate for i-20S) or 25 μM N-succinyl-Leucine-Leucine-Valine-Tyrosine-7-amino-4-methylcoumarin (suc-LLVY-AMC) (substrate for c-20S), 0.02% SDS in buffer (50 mM HEPES, 0.5 mM EDTA, pH 7.4) was added to the wells that contained 1 μL inhibitor at 100× indicated concentrations in DMSO. The reaction progress of each well was recorded by monitoring fluorescence at 460 nm (λex=360 nm) for 120 minutes at 37° C. Velocities were derived from the initial linear range of the curves and the IC50s were obtained by plotting the percentage of inhibitor versus inhibitor concentrations (FIG. 1). […]

[2] = molecular target: human immunoproteasome β5i (Homo sapiens, UniProt P28062); test: IC50 against chymotryptic activity of human immunoproteasome (Hu i-20S, Ac-ANW-AMC substrate); type: biochemical; details: 0.4 nM Hu i-20S, 15 μM Ac-ANW-AMC, 0.02% SDS, pH 7.4, 37° C.
Procedure: as §1, §2

SMILES | IC50 [1] [µM] | IC50 [2] [µM]
Cc1ccc(S(=O)(=O)N[C@@H](CCC(=O)NC(C)(C)C)CC(=O)N[C@@H](C)C(=O)NCc2cccc3ccccc23)cc1 [PK52290, (S)—N^6-(tert-butyl)-3-(4-methylphenylsulfonamido)-N^1—((S)-1-((naphthalen-1-ylmethyl)amino)-1-oxopropan-2-yl)hexanediamide] | 13.9 | 1.6
Cc1ccc(S(=O)(=O)N[C@@H](CCC(=O)NC(C)(C)C)C(=O)N[C@@H](C)C(=S)NCc2cccc3ccccc23)cc1 [PK53021] | 13.4 | 0.671
Cc1cc(C(=O)N[C@@H](CC(=O)NC(C)(C)C)C(=O)N[C@@H](C)CC(=O)NCc2cccc3ccccc23)no1 [PKS2249, (S)—N^4-(tert-butyl)-2-(5-methylisoxazole-3-carboxamido)-N^1—((S)-4-((naphthalen-1-ylmethyl)amino)-4-oxobutan-2-yl)succinamide] | 16.1 | 0.18
C[C@@H](CC(=O)NCc1cccc2ccccc12)NC(=O)C[C@H](CC(=O)NC(C)(C)C)NC(=O)CCc1ccccc1 [PKS2292, (R)—N^1-(tert-butyl)-N^5—((S)-4-((naphthalen-1-ylmethyl)amino)-4-oxobutan-2-yl)-3-(3-phenylpropanamido)pentanediamide] | > 100 | > 100
C[C@H](NC(=O)C[C@H](CC(=O)NC(C)(C)C)NC(=O)OC(C)(C)C)C(=O)Nc1ccccc1 [PKS3065] | > 100 | > 100
C[C@@H](CC(=O)NCc1cccc2ccccc12)NC(=O)[C@H](CCC(=O)NC(C)(C)C)NC(=O)CCc1ccccc1 [PKS2253, (S)—N^5-(tert-butyl)-N^1—((S)-4-((naphthalen-1-ylmethyl)amino)-4-oxobutan-2-yl)-2-(3-phenylpropanamido)pentanediamide] | 17.8 | 0.31
Cc1ccc(S(=O)(=O)N[C@@H](CC(=O)NC(C)(C)C)C(=O)N[C@@H](C)CC(=O)NCc2cccc3ccccc23)cc1 [PKS2252, (S)—N^4-(tert-butyl)-2-((4-methylphenyl)sulfonamido)-N^1—((S)-4-((naphthalen-1-ylmethyl)amino)-4-oxobutan-2-yl)succinamide] | 8.81 | 0.0064
C[C@H](NC(=O)C[C@H](CC(=O)NC(C)(C)C)NC(=O)CCc1ccccc1)C(=O)NCc1cccc2ccccc12 [PKS2278, (R)—N^1-(tert-butyl)-N^5—((S)-1-((naphthalen-1-ylmethyl)amino)-1-oxopropan-2-yl)-3-(3-phenylpropanamido)pentanediamide] | > 100 | 2.26
Cc1ccc(S(=O)(=O)N[C@H](CC(=O)N[C@@H](C)CC(=O)NCc2cccc3ccccc23)CC(=O)NC(C)(C)C)cc1 [PK52291, (R)—N^1-(tert-butyl)-3-(4-methylphenylsulfonamido)-N^5—((S)-4-((naphthalen-1-ylmethyl)amino)-4-oxobutan-2-yl)pentanediamide] | > 100 | 8.68
C[C@@H](CC(=O)NCc1cccc2ccccc12)NC(=O)[C@H](CC(=O)NC(C)(C)C)NC(=O)OC(C)(C)C [PK52272, tert-butyl ((S)-4-(tert-butylamino)-1-(((S)-4-((naphthalen-1-ylmethyl)amino)-4-oxobutan-2-yl)amino)-1,4-dioxobutan-2-yl)carbamate] | > 100 | 0.152

Continued by falling IC50 [2], values first:

IC50 [1] [µM] | IC50 [2] [µM] | SMILES
> 100 | 13.7 | C[C@@H](CC(=O)Nc1cccc2ccccc12)NC(=O)[C@H](CC(=O)NC(C)(C)C)NC(=O)CCc1ccccc1 [PKS3081]
7 | 0.799 | C[C@H](NC(=O)[C@H](CCC(=O)NC(C)(C)C)NC(=O)CCc1ccccc1)C(=S)NCc1cccc2ccccc12 [PKS3020]
51.4 | 0.655 | CC(C)(C)NC(=O)C[C@H](NC(=O)CCc1ccccc1)C(=O)NCCC(=O)NCc1cccc2ccccc12 [PKS21220]
– | 0.141 | C[C@@H](CC(=O)NCc1cccc2ccccc12)NC(=O)[C@H](CC(=O)NC(C)(C)C)NS(=O)(=O)C1CC1 [PK52295, (S)—N^4-(tert-butyl)-2-(cyclopropanesulfonamido)-N^1—((S)-4-((naphthalen-1-ylmethyl)amino)-4-oxobutan-2-yl)succinamide]
32.2 | 0.045 | C[C@@H](CC(=O)NCc1cccc2ccccc12)NC(=O)[C@H](CC(=O)NC(C)(C)C)NC(=O)CCc1ccccc1 [PKS2251, (S)—N^4-(tert-butyl)-N^1—((S)-4-((naphthalen-1-ylmethyl)amino)-4-oxobutan-2-yl)-2-(3-phenylpropanamido)succinamide]
34.7 | 0.0145 | Cc1ccc(S(=O)(=O)N[C@H](CC(=O)N[C@@H](C)C(=O)NCc2cccc3ccccc23)CC(=O)NC(C)(C)C)cc1 [PK52279, (R)—N^1-(tert-butyl)-3-(4-methylphenylsulfonamido)-N^5—((S)-1-((naphthalen-1-ylmethyl)amino)-1-oxopropan-2-yl)pentanediamide]
16.6 | 0.0112 | C[C@@H](CC(=O)NCc1cccc2ccccc12)NC(=O)[C@H](CC(=O)NC(C)(C)C)NS(=O)(=O)c1ccccc1 [PKS2260, (S)—N^4-(tert-butyl)-N^1—((S)-4-((naphthalen-1-ylmethyl)amino)-4-oxobutan-2-yl)-2-(phenylsulfonamido)succinamide]
0.234 | 0.0048 | C[C@@H](CC(=O)NCc1cccc2ccccc12)NC(=O)[C@H](CC(=O)NC(C)(C)C)NC(=O)C(=O)c1c[nH]c2ccccc12 [PKS3054]
